The target in one assay is recombinant human PIM1 (Homo sapiens (Human), UniProt P11309). As to the kind of experiment: PIM-1 kinase activity in cell-free in vitro assay. The following applies: for inhibition at 0.5 µM: 500 nM compound, read-out: PIM-1: % inh 500 nM. Type of assay: biochemical.
Assay [1] relates to HCT-116 human colorectal carcinoma cells. Description: Cell-proliferation assay using Alamar Blue dye.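 Note: cells exposed to compound for about 4 days, then Alamar Blue added and dye fluorescence read after about 4 h, compared with medium-only control wells.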 The class given is cell-based. The following applies: Homo sapiens. (In general: Alamar Blue is a resazurin reagent that responds to reducing activity.)
Setting [2] is: HCT-116, HCT-116, second HCT-116 column (c8), read-out: HCT-116 (uM), cell proliferation modulatory activity.
[3] abbreviates: HCT-116, read-out: HCT-116 (uM), cell proliferation modulatory activity, HCT-116, first column.
Setting [4] is: HCT-116, HCT-116, first column, read-out: HCT-116 (uM), cell proliferation modulatory activity.
[5] abbreviates: HCT-116, HCT-116, second column, read-out: HCT-116 (uM), cell proliferation modulatory activity.
The mark [6] stands for this setting: HCT-116, read-out: HCT-116 (uM), cell proliferation modulatory activity, HCT-116, second column.
The mark [7] stands for this setting: HCT-116, read-out: HCT-116 (uM), cell proliferation modulatory activity, HCT-116, second HCT-116 column (c8).

Where two headings read alike, the source gives them in different places.

Chain of recombinant human PIM1 (P11309 whole entry): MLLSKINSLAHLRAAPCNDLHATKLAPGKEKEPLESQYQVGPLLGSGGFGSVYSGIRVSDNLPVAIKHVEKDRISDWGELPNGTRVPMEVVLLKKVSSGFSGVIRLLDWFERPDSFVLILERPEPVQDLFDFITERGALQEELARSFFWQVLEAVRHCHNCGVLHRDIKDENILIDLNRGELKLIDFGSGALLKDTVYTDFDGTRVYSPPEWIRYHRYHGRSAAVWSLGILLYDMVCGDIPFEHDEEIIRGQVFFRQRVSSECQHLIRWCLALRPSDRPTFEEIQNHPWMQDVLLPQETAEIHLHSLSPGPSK

Take `N#Cc1ccc2c(c1)nc(NCCN1CCCC1)c1ccsc12`: the inhibition at 0.5 µM on recombinant human PIM1 (cell-free assay) was -22.4%. Further, in assay [1] (setting [2]), the IC50 was found to be 2.2 µM.
The like results for `CN1CCN(c2nc3cc(C(=O)NC4CC4)ccc3c3sccc23)CC1` were, in that order, -12.7% and greater than 10 µM.
As for `O=C(O)c1ccc2c(c1)nc(Nc1ccc(F)cc1F)c1ccsc12`, on recombinant human PIM1 (cell-free), the inhibition at 0.5 µM stood at 67.2% and the IC50 is 0.362 µM. Further, the IC50 in assay [1] (setting [3]) came out at 10 µM.
On to `CCC(c1ccccc1)c1nc2cc(C(=O)O)ccc2c2sccc12` (centres unmarked), for which, on recombinant human PIM1 (cell-free), the inhibition at 0.5 µM came to 35.4%. Also, the IC50 in assay [1] (setting [4]) worked out at 10 µM.
`CC(C)c1cccc(Nc2nc3cc(-c4nnn[nH]4)ccc3c3sccc23)c1`: the inhibition at 0.5 µM on recombinant human PIM1 (cell-free) was found to be 35.9%. The IC50 in assay [1] (setting [5]) is greater than 10 µM.
As to `O=C(O)c1ccc2c(c1)nc(Nc1cccc(C(=O)N3CCOCC3)c1)c1ccsc12`, the inhibition at 0.5 µM at recombinant human PIM1 (cell-free) amounted to 46.4%. Moreover, in assay [1] (setting [6]), the IC50 was greater than 10 µM.
Turning to `COc1cccc(Nc2nc3cc(-c4nnn[nH]4)ccc3c3sccc23)c1`, at recombinant human PIM1 (cell-free), the inhibition at 0.5 µM worked out at 55.7% and the IC50 came to 0.352 µM. The IC50 in assay [1] (setting [3]) turned out to be 10 µM.
Turning to `CCOc1cccc(Nc2nc3cc(-c4nnn[nH]4)ccc3c3sccc23)c1`, the inhibition at 0.5 µM on recombinant human PIM1 (cell-free) was 57.7%. The IC50 at recombinant human PIM1 (cell-free) is 0.384 µM; in assay [1] (setting [6]), greater than 10 µM.
For `FC(F)(F)Oc1ccc(Nc2nc3cc(-c4nnn[nH]4)ccc3c3sccc23)cc1`, the inhibition at 0.5 µM at recombinant human PIM1 (cell-free) turned out to be 32.5%. The IC50 in assay [1] (setting [5]) was greater than 10 µM.
For `COc1cc(Nc2nc3cc(-c4nnn[nH]4)ccc3c3sccc23)ccc1F`, at recombinant human PIM1 (cell-free), the inhibition at 0.5 µM amounted to 35%. The IC50 in assay [1] (setting [6]) is greater than 10 µM.
As for `c1cc2c(Nc3ccc4c(c3)OCCO4)nc3cc(-c4nnn[nH]4)ccc3c2s1`, on recombinant human PIM1 (cell-free), the inhibition at 0.5 µM came out at 26.7%. In addition, in assay [1] (setting [6]), the IC50 was greater than 10 µM.
As to `Clc1ccc(Nc2nc3cc(-c4nnn[nH]4)ccc3c3sccc23)cc1`, at recombinant human PIM1 (cell-free), the inhibition at 0.5 µM came to 66.4% and the IC50 is 0.501 µM. In assay [1] (setting [3]), the IC50 stood at 10 µM.
For `O=C(O)CNc1nc2ccccc2c2ccccc12`, the inhibition at 0.5 µM at recombinant human PIM1 (cell-free) is -17.5%. The IC50 in assay [1] (setting [4]) was 10 µM.
Consider `O=C(NCc1cccnc1)c1cccc(Nc2nc3cc(-c4nnn[nH]4)ccc3c3sccc23)c1`, for which the inhibition at 0.5 µM on recombinant human PIM1 (cell-free) stood at 29.6%. Moreover, the IC50 in assay [1] (setting [6]) was greater than 10 µM.
For the compound `CN1CCN(c2nc3cc(C(=O)NCc4ccncc4)ccc3c3sccc23)CC1`, at recombinant human PIM1 (cell-free assay), the inhibition at 0.5 µM was -14.1%. Moreover, the IC50 in assay [1] (setting [2]) was greater than 10 µM.
For `COc1cccc(Nc2nc3cc(C(=O)O)ccc3c3sccc23)c1`, the inhibition at 0.5 µM at recombinant human PIM1 (cell-free) worked out at 23.4%. The IC50 in assay [1] (setting [3]) amounted to 10 µM.
Turning to `CN1CCN(c2nc3cc(C(=O)NNc4ccccn4)ccc3c3sccc23)CC1`, the inhibition at 0.5 µM at recombinant human PIM1 (cell-free assay) was -10.9%. Also, the IC50 in assay [1] (setting [2]) is greater than 10 µM.
Consider `O=C(O)c1ccc2c(c1)nc(NCc1ccncc1)c1ccsc12`, for which the inhibition at 0.5 µM at recombinant human PIM1 (cell-free) is 71.3%. The IC50 in assay [1] (setting [3]) amounted to 10 µM.
As for `N#Cc1ccc2c(c1)nc(NCCN1CCOCC1)c1ccsc12`, the inhibition at 0.5 µM on recombinant human PIM1 (cell-free assay) was -23.8%. For the same compound, in assay [1] (setting [2]), the IC50 was greater than 10 µM.
With `COc1ccc(Nc2nc3cc(C(=O)O)ccc3c3sccc23)c(OC)c1`, on recombinant human PIM1 (cell-free), the inhibition at 0.5 µM came to 3.88%. In addition, the IC50 in assay [1] (setting [3]) amounted to 10 µM.
For the compound `O=C(O)c1ccc2c(c1)nc(NCc1ccccc1)c1ccncc12` [drawing 1557], on recombinant human PIM1 (cell-free), the inhibition at 0.5 µM came out at 44.4% and the IC50 amounted to 0.675 µM. The IC50 in assay [1] (setting [6]) was greater than 10 µM.
Consider `COc1ccc(Nc2nc3cc(-c4nnn[nH]4)ccc3c3sccc23)cc1`, for which, on recombinant human PIM1 (cell-free), the inhibition at 0.5 µM amounted to 63% and the IC50 is greater than 1.1 µM. Besides, in assay [1] (setting [5]), the IC50 is greater than 10 µM.
With `NC(=O)c1ccc2c(c1)nc(Nc1ccccc1)c1ccsc12` [drawing 1432], on recombinant human PIM1 (cell-free), the inhibition at 0.5 µM was -38.1%. In assay [1] (setting [5]), the IC50 came to 8.7 µM.
As for `CN1CCCN(c2nc3cc(C#N)ccc3c3sccc23)CC1`, the inhibition at 0.5 µM at recombinant human PIM1 (cell-free assay) was -10%. In assay [1] (setting [2]), the IC50 worked out at 2.63 µM.
Consider `N#Cc1ccc2c(c1)nc(Nc1ccccc1)c1ccsc12` [drawing 1431], for which, on recombinant human PIM1 (cell-free), the inhibition at 0.5 µM was -22.3%. In addition, the IC50 in assay [1] (setting [4]) came out at 10 µM.
For the compound `O=C(O)c1ccc2c(c1)nc(NCCCO)c1ccsc12`, the inhibition at 0.5 µM on recombinant human PIM1 (cell-free) was -0.688%. In addition, in assay [1] (setting [3]), the IC50 turned out to be 10 µM.
Consider `COc1ccc(Nc2nc3cc(-c4nnn[nH]4)ccc3c3sccc23)cc1OC`, for which, at recombinant human PIM1 (cell-free), the inhibition at 0.5 µM was 55.5% and the IC50 was 0.809 µM. Besides, the IC50 in assay [1] (setting [5]) is greater than 10 µM.
Regarding `Fc1cc(Cl)cc(Nc2nc3cc(-c4nnn[nH]4)ccc3c3sccc23)c1`, on recombinant human PIM1 (cell-free), the inhibition at 0.5 µM was 82% and the IC50 was 0.562 µM. For the same compound, the IC50 in assay [1] (setting [6]) was greater than 10 µM.
On to `O=C(O)c1ccc2c(c1)nc(Nc1cccc(Oc3ccccc3)c1)c1ccsc12`, for which the inhibition at 0.5 µM at recombinant human PIM1 (cell-free) is -10.2%. The IC50 in assay [1] (setting [6]) was greater than 10 µM.
Regarding `COC(=O)c1ccc2c(c1)[nH]c(=O)c1ccncc12` [drawing 1390], the inhibition at 0.5 µM at recombinant human PIM1 (cell-free) stood at 0.802%. In addition, in assay [1] (setting [3]), the IC50 amounted to 10 µM.
On to `N#Cc1ccc2c(c1)nc(NCCO)c1ccsc12`, for which the inhibition at 0.5 µM on recombinant human PIM1 (cell-free assay) was -2.91%. In addition, the IC50 in assay [1] (setting [2]) is greater than 10 µM.
Take `CCOc1cccc(Nc2nc3cc(C(=O)O)ccc3c3sccc23)c1`: at recombinant human PIM1 (cell-free), the inhibition at 0.5 µM was determined as 16.8%. In assay [1] (setting [6]), the IC50 is greater than 10 µM.
As for `OCCCOc1nc2cc(-c3nnn[nH]3)ccc2c2ccccc12`, the inhibition at 0.5 µM at recombinant human PIM1 (cell-free) came out at 40.8%. The IC50 in assay [1] (setting [4]) worked out at 10 µM.
Turning to `CN(C)CCNC(=O)c1cccc(Nc2nc3cc(C(=O)O)ccc3c3sccc23)c1`, on recombinant human PIM1 (cell-free), the inhibition at 0.5 µM came to 74.7%. In addition, the IC50 on recombinant human PIM1 (cell-free) is 0.436 µM; in assay [1] (setting [6]), greater than 10 µM.
For the compound `CN(C)C1CCN(c2nc3cc(C#N)ccc3c3sccc23)C1` (centres unmarked), the inhibition at 0.5 µM at recombinant human PIM1 (cell-free assay) was -16.5%. Further, the IC50 in assay [1] (setting [2]) is 3.86 µM.
As to `CN(C)CCNC(=O)c1cccc(Nc2nc3cc(-c4nnn[nH]4)ccc3c3sccc23)c1`, the inhibition at 0.5 µM at recombinant human PIM1 (cell-free) was 71.1%. The IC50 on recombinant human PIM1 (cell-free) is 0.38 µM; in assay [1] (setting [6]), greater than 10 µM.
For `O=C(O)c1ccc2c(c1)nc(Nc1cccc(F)c1F)c1ccsc12`, in that order: 72.9%, 0.855 µM and greater than 10 µM.
Turning to `CCOc1ncc2c(n1)c(NC1CC1)nc1cc(C(=O)O)ccc12` [drawing 1615], the inhibition at 0.5 µM at recombinant human PIM1 (cell-free assay) was 11.1%. Moreover, the IC50 in assay [1] (setting [7]) is greater than 10 µM.
For the compound `O=C(O)c1ccc2c(c1)nc(Nc1nc3ccccc3[nH]1)c1ccsc12`, at recombinant human PIM1 (cell-free), the inhibition at 0.5 µM is -40.1%. In addition, the IC50 in assay [1] (setting [4]) came to 10 µM.
Regarding `COC(=O)CNC(=O)c1cccc(Nc2nc3cc(-c4nnn[nH]4)ccc3c3sccc23)c1`, the inhibition at 0.5 µM at recombinant human PIM1 (cell-free) was found to be 48%. In assay [1] (setting [6]), the IC50 was greater than 10 µM.
For `O=C(O)c1cc(F)cc(Nc2nc3cc(C(=O)O)ccc3c3sccc23)c1`, the inhibition at 0.5 µM on recombinant human PIM1 (cell-free) was found to be 51%. Moreover, the figures for the IC50 (at recombinant human PIM1 (cell-free); in assay [1] (setting [6])) were 0.521 µM and greater than 10 µM, respectively.
On to `COc1cc(Nc2nc3cc(-c4nnn[nH]4)ccc3c3sccc23)ccc1C`, for which, on recombinant human PIM1 (cell-free), the inhibition at 0.5 µM was determined as 34.1%. In assay [1] (setting [5]), the IC50 was greater than 10 µM.
With `CC(=O)N1CCN(C(=O)c2cccc(Nc3nc4cc(-c5nnn[nH]5)ccc4c4sccc34)c2)CC1`, on recombinant human PIM1 (cell-free), the inhibition at 0.5 µM was found to be 48.4%. In addition, the IC50 in assay [1] (setting [6]) was greater than 10 µM.
Consider `O=C(O)c1ccc2c(c1)nc(NCCc1ccccc1)c1ccncc12` [drawing 1511], for which, on recombinant human PIM1 (cell-free), the inhibition at 0.5 µM came out at 80.9% and the IC50 stood at 0.536 µM. In assay [1] (setting [6]), the IC50 is greater than 10 µM.
Take `Nc1ncc2c(n1)c(NC1CC1)nc1cc(C(=O)O)ccc12` [drawing 1644]: the inhibition at 0.5 µM on recombinant human PIM1 (cell-free assay) came to 60.1%. The values for the IC50 (at recombinant human PIM1 (cell-free assay); in assay [1] (setting [7])) were 0.432 µM and greater than 10 µM, respectively.

The record behind these values is patent publication US8168651B2, “Protein kinase modulators” (Cylene Pharmaceuticals, Inc., priority 2008, dated 2012).
